Measured values published in article PMC10451629, “Evaluation of the Effects of Heteroaryl Ethylene Molecules in Combination with Antibiotics: A Preliminary Study on Control Strains” (Antibiotics, 2023).
pIC50: −log10 of the molar value. ≈ marks a conversion by molar mass, not a printed value. Where “and” joins values, the source holds several entries; their conditions need not be identical. Identical values can stand only once. Like-named read-outs stand apart in the source and are kept apart here.

Assays:
[1] = system: P. aeruginosa ATCC 27853; test: Broth microdilution MIC; assay type: cell-based, Pseudomonas aeruginosa; conditions: substance alone
[2] = system: A. baumannii ATCC 17978; test: Broth microdilution MIC; assay type: cell-based; conditions: Acinetobacter baumannii, ATCC17978, substance alone
[3] = system: S. aureus ATCC 12598; test: Broth microdilution MIC; assay type: cell-based, Staphylococcus aureus; conditions: Staphylococcus aureus, ATCC12598, S. aureus ATCC 12598; substance alone; read-out: MIC
[4] = system: E. faecalis ATCC 29212; test: Broth microdilution MIC; assay type: cell-based, Enterococcus faecalis; conditions: for MIC: substance alone
[5] = system: S. enterica ATCC 14028; test: Broth microdilution MIC; assay type: cell-based; conditions: Salmonella enterica, ATCC14028, substance alone
[6] = system: K. pneumoniae ATCC 700603; test: Broth microdilution MIC; assay type: cell-based, Klebsiella pneumoniae; conditions: for MIC: substance alone
[7] = system: E. coli ATCC 25922; test: Broth microdilution MIC; assay type: cell-based; conditions: Escherichia coli, ATCC25922, substance alone, read-out: MIC
[8] = system: all tested strains; test: Broth microdilution MIC, summary over all tested strains; assay type: cell-based; conditions: for MIC reduction in combination with PB4: all tested bacterial strains, antibiotic + PB4
[9] = system: S. aureus ATCC 29213; test: Broth microdilution MIC; assay type: cell-based; conditions: Staphylococcus aureus, ATCC29213, S. aureus ATCC 29213; substance alone; read-out: MIC
[10] = system: S. aureus ATCC BAA-1556 USA300; test: Broth microdilution MIC; assay type: cell-based, Staphylococcus aureus; conditions: Staphylococcus aureus, S. aureus ATCC BAA-1556 USA300; substance alone
[11] = system: CaCo-2 (ATCC HTB-37) colon–rectal cancer cell line; test: MTT cytotoxicity assay on CaCo-2 cells; assay type: cell-based, human; conditions: for pIC50: Homo sapiens, CaCo-2 cell line, MTT; for Percentage of cell growth, antibiotic / Percentage of cell growth, antibiotic + PB4 0.2 µM: CaCo-2
Protocol: To fully assess the biological activity of the new molecules, they were tested at different concentrations on the CaCo-2 (ATCC HTB-37) colon–rectal cancer cell line. These human cancer cells were exposed to compound solutions ranging in concentration from 100 µM to 0.01 µM. As a reference compound for these assays, we used 5-Fluorouracil (5-FU), a pyrimidine analog from the antimetabolite family.
The MTT assay was also performed for the selected antibiotics to evaluate the effect of their combined treatment with PB4.
To evaluate the effect of the heteroaryl ethylene compounds and the antibiotics, an MTT ([3-(4,5-dimethylthiazol-2-yl)-2,5-diphenyltetrazolium bromide]) assay was performed as previously described. […] Both concentrations were also tested in combination with PB4 0.2 µM. All antibiotics were provided by Thermo Scientific^TM Oxoid^TM, Basingstoke, UK. Twenty-four hours after plating, the cells were treated with 20 μL of each solution. Untreated cells were used as controls. […] The IC50 values were calculated by nonlinear regression analysis using GraphPad Prism 6.0 software.

[12] = system: Gram-positive strains; test: Broth microdilution MIC, summary over Gram-positive strains; assay type: cell-based
[13] = system: CaCo2 colon-rectal cancer cell line; set-up: method as in in-house dataset; Log(IC50) 48h: unit not given here; conditions: in-house dataset previously tested by the authors' groups, ref in-house dataset, cited from earlier work
[14] = Pseudomonas aeruginosa, ATCC27853, P. aeruginosa ATCC 27853, read-out: MIC
[15] = Enterococcus faecalis, ATCC29212, E. faecalis ATCC 29212, read-out: MIC
[16] = Caco-2, 24 h, 24 h of treatment, read-out: IC50 at 24 h
[17] = Caco-2, 48 h, 48 h of treatment, read-out: IC50 at 48 h
[18] = Klebsiella pneumoniae, ATCC700603, K. pneumoniae ATCC 700603, read-out: MIC

CC1(C)S[C@@H]2[C@H](NC(=O)[C@H](N)c3ccccc3)C(=O)N2[C@H]1C(=O)O [Ampicillin, ampicillin, reference compound]
MIC ([1]; P. aeruginosa ATCC 27853): 2 mg/L (≈ 5.72 µM) | MIC ([1]; P. aeruginosa ATCC 27853, listed as AMP): >128 mg/L | MIC [2]: 32 µg/mL (≈ 91.6 µM) | MIC [3]: 0.125 µg/mL (≈ 0.358 µM) | MIC of antibiotic in combination with PB4 ([4]; E. faecalis ATCC 29212, PB4 at fixed 0.125 μg/mL (0.24 μM), a quarter of an MIC value): 1 µg/mL | MIC ([4]; E. faecalis ATCC 29212): 4 mg/L (≈ 11.4 µM) | MIC ([4]; E. faecalis ATCC 29212, listed as AMP): 0.25 mg/L (≈ 0.715 µM) | MIC [5]: 2 µg/mL (≈ 5.72 µM) | MIC of antibiotic in combination with PB4 ([6]; K. pneumoniae ATCC 700603, sub-MIC PB4): 2 µg/mL | MIC ([6]; K. pneumoniae ATCC 700603): 8 mg/L (≈ 22.9 µM) | MIC ([6]; K. pneumoniae ATCC 700603, listed as AMP): >128 mg/L | MIC [7]: 8 µg/mL (≈ 22.9 µM) | MIC reduction in combination with PB4 [8]: no significant MIC reductions | MIC [9]: 2 µg/mL (≈ 5.72 µM) | MIC [10]: 8 µg/mL (≈ 22.9 µM)

COc1ccc(/C=C/c2cccc(/C=C/c3ccc(OC)cc3)[n+]2C)cc1 [BCM6]
MIC [1, 14]: > 128 µg/mL and > 264 µM | MIC [2]: 64 µg/mL and 132 µM | MIC [3]: 4 µg/mL and 8.23 µM | MIC [4, 15]: 32 µg/mL and 65.9 µM | MIC [5]: > 128 µg/mL and > 264 µM | pIC50 [11, 16]: 6.80 | pIC50 [11, 17]: 6.74 | MIC [6, 18]: > 128 µg/mL and > 264 µM | MIC [7]: 128 µg/mL and 264 µM | MIC [12]: 4 to 8 µg/mL | pIC50 ([13]; 48h): 4.91 | Log(IC50) 48h [13]: 1.09 | MIC [9]: 4 µg/mL and 8.2 µM | MIC [10]: 8 µg/mL and 16.4 µM

CC[C@H]1OC(=O)[C@H](C)[C@@H](O[C@H]2C[C@@](C)(OC)[C@@H](O)[C@H](C)O2)[C@H](C)[C@@H](O[C@@H]2O[C@H](C)C[C@H](N(C)C)[C@H]2O)[C@](C)(O)C[C@@H](C)C(=O)[C@H](C)[C@@H](O)[C@]1(C)O [Erythromycin, erythromycin]
MIC [3]: 0.5 µg/mL (≈ 0.681 µM) | MIC [4, 15]: 2 mg/L (≈ 2.73 µM) | Percentage of cell growth, antibiotic ([11]; antibiotic alone at MIC for E. faecalis ATCC 29212, 24 h): 148.2% | Percentage of cell growth, antibiotic ([11]; antibiotic alone at MIC for E. faecalis ATCC 29212, 48 h): 269.0% | Percentage of cell growth, antibiotic ([11]; antibiotic alone at sub-MIC (half-MIC), 24 h): 159.5% | Percentage of cell growth, antibiotic ([11]; antibiotic alone at sub-MIC (half-MIC), 48 h): 280.6% | Percentage of cell growth, antibiotic + PB4 0.2 µM ([11]; antibiotic at MIC + PB4 0.2 µM, 24 h): 133.6% | Percentage of cell growth, antibiotic + PB4 0.2 µM ([11]; antibiotic at MIC + PB4 0.2 µM, 48 h): 117.5% | Percentage of cell growth, antibiotic + PB4 0.2 µM ([11]; antibiotic at sub-MIC + PB4 0.2 µM, 24 h): 124.9% | Percentage of cell growth, antibiotic + PB4 0.2 µM ([11]; antibiotic at sub-MIC + PB4 0.2 µM, 48 h): 155.8% | MIC reduction in combination with PB4 [8]: no significant MIC reductions | MIC [9]: 0.5 µg/mL (≈ 0.681 µM) | MIC [10]: 32 µg/mL (≈ 43.6 µM)

C[n+]1c(/C=C/c2ccc(N(c3ccccc3)c3ccccc3)cc2)cccc1/C=C/c1ccc(N(c2ccccc2)c2ccccc2)cc1 [GC-VI-10]
MIC [1, 14]: > 128 µg/mL and > 169 µM | MIC [2]: > 128 µg/mL and > 169 µM | MIC [3]: 64 µg/mL and 84.4 µM | MIC [4, 15]: 4 µg/mL and 5.2 µM | MIC [5]: > 128 µg/mL and > 169 µM | pIC50 [11, 16]: 5.87 | pIC50 [11, 17]: 6.00 | MIC [6, 18]: > 128 µg/mL and > 169 µM | MIC [7]: > 128 µg/mL and > 169 µM | MIC levels over all tested strains ([8]; summary in text over all tested strains): high MIC levels | MIC [9]: 128 µg/mL and 169 µM | MIC [10]: 128 µg/mL and 169 µM
